Earlier results in patent US20170100411A1, “CORTICOSTEROID FORMULATIONS FOR MAINTAINING CORTICOSTEROID SYNOVIAL FLUID CONCENTRATIONS” (priority 2015, published 2017).

How the values were obtained:
[1] = tested on: HPA axis; settings: BID administration of 20 mg
[2] = target: T1, glucocorticosteroid (GC) receptor (Homo sapiens, UniProt P04150)
T1 sequence (P04150 1-777): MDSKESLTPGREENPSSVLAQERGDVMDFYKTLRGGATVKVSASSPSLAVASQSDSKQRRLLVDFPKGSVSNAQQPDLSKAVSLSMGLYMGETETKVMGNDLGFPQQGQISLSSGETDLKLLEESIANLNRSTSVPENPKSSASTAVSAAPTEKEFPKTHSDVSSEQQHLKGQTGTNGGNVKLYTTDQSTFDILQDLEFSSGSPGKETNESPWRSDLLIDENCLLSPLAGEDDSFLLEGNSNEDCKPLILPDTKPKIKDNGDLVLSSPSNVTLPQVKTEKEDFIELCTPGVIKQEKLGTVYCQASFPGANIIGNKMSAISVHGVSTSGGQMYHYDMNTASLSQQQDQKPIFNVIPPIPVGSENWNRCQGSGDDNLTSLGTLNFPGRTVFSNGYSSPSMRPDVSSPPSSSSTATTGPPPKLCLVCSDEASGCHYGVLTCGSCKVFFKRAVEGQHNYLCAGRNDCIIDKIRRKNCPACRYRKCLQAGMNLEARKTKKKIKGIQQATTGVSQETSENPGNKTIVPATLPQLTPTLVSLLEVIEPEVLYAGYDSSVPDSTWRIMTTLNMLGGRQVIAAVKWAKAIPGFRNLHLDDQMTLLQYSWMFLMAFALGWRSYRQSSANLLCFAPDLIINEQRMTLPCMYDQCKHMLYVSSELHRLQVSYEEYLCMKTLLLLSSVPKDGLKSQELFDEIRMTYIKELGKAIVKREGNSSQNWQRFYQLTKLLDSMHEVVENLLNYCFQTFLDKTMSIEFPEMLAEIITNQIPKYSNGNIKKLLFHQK

Row | Molecule | suppression of the HPA axis (published CCS %) [1] | potency at the GC receptor relative to other corticosteroids such as TCA [2]
1 | Methylprednisone | 80-90% | 
2 | CCC(=O)O[C@]1(C(=O)SCF)[C@H](C)C[C@H]2[C@@H]3C[C@H](F)C4=CC(=O)C=C[C@]4(C)[C@@]3(F)[C@@H](O)C[C@@]21C [fluticasone propionate] |  | approximately 20 fold
